From the NIST ThermoML archive (doi:10.1021/je050520f)
± gives the expanded uncertainty stated by the source.

What was measured:
[1] = 101.33 kPa, Liquid
[2] = refractive index (Na D-line) (dimensionless); settings: 101.33 kPa, Liquid

Structure (SMILES)	mass density ([1]; 298.15 K)	refractive index ([2]; 298.15 K, Abbe refractometer)	refractive index ([2]; 293.15 K, Abbe refractometer)	further results
NC1CCCCC1 [cyclohexylamine]				mass density ([1]; 303.15 K): 858.2 ± 0.2 kg/m3; refractive index ([2]; 288.15 K, Abbe refractometer): 1.4624 ± 0.0005
CCCCCCC [heptane]	679.43 ± 0.36 kg/m3	1.3853 ± 0.0003		
CCCCCCCC [octane]	698.49 ± 0.31 kg/m3			refractive index ([2]; 298.15 K): 1.3946 ± 0.0007
CCCc1ccccc1 [propylbenzene]	860.79 ± 0.28 kg/m3	1.4901 ± 0.0006		
Cc1ccccc1 [toluene]			1.496 ± 0.0006	mass density ([1]; 293.15 K): 866.78 ± 0.19 kg/m3
O [water]			1.3336 ± 0.0005	
